According to patent US10435399B2, “HDAC6 inhibitory heterocyclic compound” (TAKEDA PHARMACEUTICAL COMPANY LIMITED, priority 2017, dated 2019):

What follows are compounds tested against T1, HDAC6 enzyme (Homo sapiens, UniProt Q9UBN7) (assay: HDAC6 enzyme inhibitory activity (HDAC-Glo I/II Assay kit)). Conditions: 10 μM; wells without enzyme = 100% inhibition; read-out: HDAC6 inhibitory rate (%) (10 μM).
T1 construct: transducing full length HDAC6 gene into Sf-9 insect cells; GST; purchased SignalChem; host or cells: Sf-9 insect cells
T1 sequence (Q9UBN7 1-1215): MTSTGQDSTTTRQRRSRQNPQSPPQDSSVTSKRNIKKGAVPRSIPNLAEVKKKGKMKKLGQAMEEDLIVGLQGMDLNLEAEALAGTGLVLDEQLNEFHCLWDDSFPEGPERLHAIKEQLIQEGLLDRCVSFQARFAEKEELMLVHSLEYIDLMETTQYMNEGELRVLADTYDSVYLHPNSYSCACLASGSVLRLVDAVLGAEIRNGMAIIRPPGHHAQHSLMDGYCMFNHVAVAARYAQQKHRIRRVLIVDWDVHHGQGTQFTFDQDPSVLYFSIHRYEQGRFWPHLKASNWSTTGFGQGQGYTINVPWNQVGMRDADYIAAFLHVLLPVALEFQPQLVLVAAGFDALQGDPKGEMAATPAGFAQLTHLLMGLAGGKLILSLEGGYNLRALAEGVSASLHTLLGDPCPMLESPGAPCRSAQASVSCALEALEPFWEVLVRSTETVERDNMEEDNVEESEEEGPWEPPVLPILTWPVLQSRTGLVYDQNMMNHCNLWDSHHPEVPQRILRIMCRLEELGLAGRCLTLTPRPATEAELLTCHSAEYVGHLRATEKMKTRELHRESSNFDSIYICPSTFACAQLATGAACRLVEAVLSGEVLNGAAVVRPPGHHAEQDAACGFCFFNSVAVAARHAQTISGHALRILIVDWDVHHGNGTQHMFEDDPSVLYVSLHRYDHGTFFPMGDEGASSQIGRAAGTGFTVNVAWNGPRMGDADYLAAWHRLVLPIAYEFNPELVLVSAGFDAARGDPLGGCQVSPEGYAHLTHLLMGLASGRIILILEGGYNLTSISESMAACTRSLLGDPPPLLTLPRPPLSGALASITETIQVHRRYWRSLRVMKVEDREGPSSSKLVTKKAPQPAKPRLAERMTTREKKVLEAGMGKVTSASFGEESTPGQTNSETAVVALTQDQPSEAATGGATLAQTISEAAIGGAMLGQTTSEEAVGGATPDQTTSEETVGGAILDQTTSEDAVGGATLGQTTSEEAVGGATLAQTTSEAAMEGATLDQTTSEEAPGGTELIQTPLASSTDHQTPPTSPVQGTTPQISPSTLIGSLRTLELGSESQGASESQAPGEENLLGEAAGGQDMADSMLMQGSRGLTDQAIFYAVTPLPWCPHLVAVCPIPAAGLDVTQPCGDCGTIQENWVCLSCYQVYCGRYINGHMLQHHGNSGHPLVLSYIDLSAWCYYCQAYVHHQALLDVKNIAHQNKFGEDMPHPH
Type: biochemical
Summary of the method: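 Test compound is preincubated 60 min at RT with full-length insect-cell HDAC6 in Tris-HCl pH 7.5 with 135 mM NaCl and 1 mM MgCl2. A 20 min room-temperature HDAC-Glo reaction follows, with luminescent read-out.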

inhibition at 10 µM [%]	SMILES
100	O=C1c2cc(-c3nnc(C(F)F)o3)ccc2CN1c1ccc(F)cc1-n1cc(C(F)(F)F)cn1 [Example 450, 6-(5-(difluoro-methyl)-1,3,4-oxadiazol-2-yl)-2-(4-fluoro-2-(4-(trifluoro-methyl)-1H-pyrazol-1-yl)phenyl) isoindolin-1-one]
98	O=C1c2cc(-c3nnc(C(F)F)o3)ccc2CN1c1ccc(F)cc1-n1cc(Cl)cn1 [Example 451, 2-(2-(4-chloro-1H-pyrazol-1-yl)-4-fluoro-phenyl)-6-(5-(difluoro-methyl)-1,3,4-oxadiazol-2-yl) isoindolin-1-one]
99	O=C1c2cc(-c3nnc(C(F)F)o3)ccc2CN1c1ccc(F)cc1-n1cc(F)cn1 [Example 452, 6-(5-(difluoromethyl)-1,3,4-oxadiazol-2-yl)-2-(4-fluoro-2-(4-fluoro-1H-pyrazol-1-yl)phenyl)isoindolin-1-one]
99	O=C1c2cc(-c3nnc(C(F)F)o3)ccc2CN1c1ccnn1-c1cccc(F)c1 [Example 453, 6-(5-(difluoro-methyl)-1,3,4-oxadiazol-2-yl)-2-(1-(3-fluoro-phenyl)-1H-pyrazol-5-yl) isoindolin-1-one]
101	O=C1c2cc(-c3nnc(C(F)F)o3)cnc2CN1Cc1ccc(Cl)s1 [Example 454, 6-((5-chloro-2-thienyl)methyl)-3-(5-(difluoro-methyl)-1,3,4-oxadiazol-2-yl)-6,7-dihydro-5H-pyrrolo [3,4-b]pyridin-5-one]
102	Cn1cc(-c2cc(F)cc(F)c2)c(N2Cc3ccc(-c4nnc(C(F)F)o4)cc3C2=O)n1 [Example 455, 6-(5-(difluoro-methyl)-1,3,4-oxadiazol-2-yl)-2-(4-(3,5-difluoro-phenyl)-1-methyl-1H-pyrazol-3-yl) isoindolin-1-one]
100	CCOc1ccccc1CN1Cc2ncc(-c3nnc(C(F)F)o3)cc2C1=O [Example 456, 3-(5-(difluoro-methyl)-1,3,4-oxadiazol-2-yl)-6-(2-ethoxy-benzyl)-6,7-dihydro-5H-pyrrolo[3,4-b] pyridin-5-one]
97	O=C1c2cc(-c3nnc(C(F)F)o3)cnc2CN1Cc1cc2ccccn2n1 [Example 457, 3-(5-(difluoro-methyl)-1,3,4-oxadiazol-2-yl)-6-(pyrazolo [1,5-a]pyridin-2-ylmethyl)-6,7-dihydro-5H-pyrrolo [3,4-b] pyridin-5-one]
100	O=C1c2cc(-c3nnc(C(F)F)o3)cnc2CN1Cc1cnn2ccccc12 [Example 458, 3-(5-(difluoro-methyl)-1,3,4-oxadiazol-2-yl)-6-(pyrazolo [1,5-a]pyridin-3-ylmethyl)-6,7-dihydro-5H-pyrrolo [3,4-b] pyridin-5-one]
97	Cn1cc(-c2cncc(F)c2)c(N2Cc3ccc(-c4nnc(C(F)F)o4)cc3C2=O)n1 [Example 459, 6-(5-(difluoro-methyl)-1,3,4-oxadiazol-2-yl)-2-(4-(5-fluoro-pyridin-3-yl)-1-methyl-1H-pyrazol-3-yl) isoindolin-1-one]
102	Cn1cc(-c2ccccc2F)c(N2Cc3ccc(-c4nnc(C(F)F)o4)cc3C2=O)n1 [Example 460, 6-(5-(difluoro-methyl)-1,3,4-oxadiazol-2-yl)-2-(4-(2-fluoro-phenyl)-1-methyl-1H-pyrazol-3-yl) isoindolin-1-one]
100	CCC(=O)N[C@@H]1CCCC[C@H]1N1Cc2ncc(-c3nnc(C(F)F)o3)cc2C1=O [Example 461, N-((1R,2R)-2-(3-(5-(difluoro-methyl)-1,3,4-oxadiazol-2-yl)-5-oxo-5,7-dihydro-6H-pyrrolo[3,4-b]pyridin-6-yl)cyclohexyl) propanamide]
100	CCCC(=O)N[C@@H]1CCCC[C@H]1N1Cc2ncc(-c3nnc(C(F)F)o3)cc2C1=O [Example 462, N-((1R,2R)-2-(3-(5-(difluoro-methyl)-1,3,4-oxadiazol-2-yl)-5-oxo-5,7-dihydro-6H-pyrrolo[3,4-b]pyridin-6-yl)cyclohexyl) butanamide]
101	O=C(N[C@@H]1CCCC[C@H]1N1Cc2ncc(-c3nnc(C(F)F)o3)cc2C1=O)C1CC1 [Example 463, N-((1R,2R)-2-(3-(5-(difluoro-methyl)-1,3,4-oxadiazol-2-yl)-5-oxo-5,7-dihydro-6H-pyrrolo[3,4-b]pyridin-6-yl)cyclohexyl) cyclopropane-carboxamide]
101	O=C(N[C@@H]1CCCC[C@H]1N1Cc2ncc(-c3nnc(C(F)F)o3)cc2C1=O)C1CCC1 [Example 464, N-((1R,2R)-2-(3-(5-(difluoro-methyl)-1,3,4-oxadiazol-2-yl)-5-oxo-5,7-dihydro-6H-pyrrolo[3,4-b]pyridin-6-yl)cyclohexyl) cyclobutane-carboxamide]
99	O=C(N[C@@H]1CCCC[C@H]1N1Cc2ncc(-c3nnc(C(F)F)o3)cc2C1=O)c1ccccc1 [Example 465, N-((1R,2R)-2-(3-(5-(difluoro-methyl)-1,3,4-oxadiazol-2-yl)-5-oxo-5,7-dihydro-6H-pyrrolo[3,4-b]pyridin-6-yl)cyclohexyl) benzamide]
100	O=C(Cc1ccccc1)N[C@@H]1CCCC[C@H]1N1Cc2ncc(-c3nnc(C(F)F)o3)cc2C1=O [Example 466, N-((1R,2R)-2-(3-(5-(difluoro-methyl)-1,3,4-oxadiazol-2-yl)-5-oxo-5,7-dihydro-6H-pyrrolo[3,4-b]pyridin-6-yl)cyclohexyl)-2-phenyl-acetamide]
101	O=C1c2cc(-c3nnc(C(F)F)o3)ccc2CN1c1ccc(F)cc1-c1ccn[nH]1 [Example 467, 6-(5-(difluoro-methyl)-1,3,4-oxadiazol-2-yl)-2-(4-fluoro-2-(1H-pyrazol-5-yl)phenyl) isoindolin-1-one]
100	Cn1cc(-c2cc(F)cc(C#N)c2)c(N2Cc3ccc(-c4nnc(C(F)F)o4)cc3C2=O)n1 [Example 468, 3-(3-(6-(5-(difluoro-methyl)-1,3,4-oxadiazol-2-yl)-1-oxo-1,3-dihydro-2H-isoindol-2-yl)-1-methyl-1H-pyrazol-4-yl)-5-fluoro-benzonitrile]
99	O=C1c2cc(-c3nnc(C(F)F)o3)ccc2CN1[C@@H]1CCC(F)(F)C[C@H]1NC(=O)C(F)(F)C(F)(F)F [Example 469, N-((1R,2R)-2-(6-(5-(difluoromethyl)-1,3,4-oxadiazol-2-yl)-1-oxo-1,3-dihydro-2H-isoindol-2-yl)-5,5-difluorocyclohexyl)-2,2,3,3,3-pentafluoropropanamide]
101	CC(F)(F)C(=O)N[C@@H]1CC(F)(F)CC[C@H]1N1Cc2ccc(-c3nnc(C(F)F)o3)cc2C1=O [Example 470, N-((1R,2R)-2-(6-(5-(difluoromethyl)-1,3,4-oxadiazol-2-yl)-1-oxo-1,3-dihydro-2H-isoindol-2-yl)-5,5-difluorocyclohexyl)-2,2-difluoropropanamide]
100	Cn1cc(-c2cc(F)nc(F)c2)c(N2Cc3ccc(-c4nnc(C(F)F)o4)cc3C2=O)n1 [Example 471, 6-(5-(difluoro-methyl)-1,3,4-oxadiazol-2-yl)-2-(4-(2,6-difluoro-pyridin-4-yl)-1-methyl-1H-pyrazol-3-yl) isoindolin-1-one]
100	O=C1c2cc(-c3nnc(C(F)F)o3)ccc2CN1c1ccnn1-c1cccc(Cl)c1 [Example 472, 2-(1-(3-chloro-phenyl)-1H-pyrazol-5-yl)-6-(5-(difluoro-methyl)-1,3,4-oxadiazol-2-yl) isoindolin-1-one]
99	O=C1c2cc(-c3nnc(C(F)F)o3)ccc2CN1c1ccnn1-c1ccc(F)cc1 [Example 473, 6-(5-(difluoro-methyl)-1,3,4-oxadiazol-2-yl)-2-(1-(4-fluoro-phenyl)-1H-pyrazol-5-yl) isoindolin-1-one]
99	Cn1cc(C2=CCC(F)(F)CC2)c(N2Cc3ccc(-c4nnc(C(F)F)o4)cc3C2=O)n1 [Example 474, 2-(4-(4,4-difluorocyclo-hex-1-en-1-yl)-1-methyl-1H-pyrazol-3-yl)-6-(5-(difluoro-methyl)-1,3,4-oxadiazol-2-yl) isoindolin-1-one]
